According to BigSolDB 2.1:

Nc1ccc(S(=O)(=O)O)cc1
solubility (mole fraction)
Conditions	in acetic acid	in acetone	in acetonitrile	in ethanol	in formic acid	in isopropanol	in methanol
278.15 K	–	0.000291	0.000132	0.000213	0.00106	0.000253	0.000247
283.15 K	–	0.000296	0.000144	0.000231	0.00116	0.00027	0.000263
288.15 K	0.00204	0.000303	0.000165	0.000251	0.00129	0.000303	0.000284
293.15 K	0.00217	0.00031	0.000178	0.000264	0.00139	0.000318	0.000299
298.15 K	0.00227	0.000317	0.000195	0.000284	0.00152	0.000348	0.000318
303.15 K	0.0024	0.000324	0.000214	0.0003	0.00166	0.000373	0.000342
308.15 K	0.00252	0.000332	0.000235	0.000323	0.00181	0.000403	0.000362
313.15 K	0.00264	0.000338	0.000255	0.000338	0.00196	0.000429	0.000383
318.15 K	0.00277	0.000346	0.000274	0.000363	0.00213	0.000461	0.000403
323.15 K	0.00291	0.000353	0.000301	0.000385	0.00231	0.000494	0.000432
328.15 K	0.00304	0.00036	0.000324	0.000403	0.00247	0.000525	0.00045
